# Results reported in patent US8389526B2, “3-heteroarylmethyl-imidazo[1,2-b]pyridazin-6-yl derivatives” (Novartis AG, priority 2009, dated 2013).
# How the values were obtained:
# [1] = target: T1, c-Met receptor tyrosine kinase, GST-c-Met(969-1390) (Homo sapiens, UniProt P08581); assay: EPK c-Met profiling assay (LanthaScreen TR-FRET kinase assay); assay type: biochemical; settings: 2 μM ATP, 0.3 nM enzyme, 60 minutes at room temperature
# T1 construct: made in house
# Method: A number of compounds of the present invention were assayed in an antibody based kinase phosphorylation assay as follows.
# Epk c-Met Profiling Assay:
# The EPK kinase assay for c-Met receptor tyrosine kinase was developed, using the purified recombinant GST-fusion protein, containing the cytoplasmic domain of the enzyme. GST-c-Met(969-1390) was purified by affinity chromatography.
# The kinase assay is based on the LanthaScreen™ technology. LanthaScreen™ is the detection of Time-Resolved Fluorescence Resonance Energy Transfer (TR-FRET) using lanthanide chelates to measure interactions between various binding partners. In a TR-FRET kinase assay, a long-lifetime lanthanide donor species is conjugated to an antibody that specifically binds to a phosphorylated product of a kinase reaction that is labeled with a suitable acceptor fluorophore. This antibody-mediated interaction brings the lanthanide donor and the acceptor into proximity such that resonance energy transfer can take place, resulting in a detectible increase in the FRET signal.
# The kinase reactions were performed in 384 well microtiter plates in a total reaction volume of 9.05 μL. The assay plates were prepared with 0.05 μL per well of test compound in the appropriate test concentration, as described under “preparation of compound dilutions”. The reactions were started by combining 4.5 μL of ATP solution with 4.5 μL of enzyme-substrate mix (consisting of kinase and substrate). The final concentrations in the kinase reactions were 35 mM Tris/HCl, 1 mM DTT, 0.025% Tween20, 10 μM sodium orthovanadate, 0.25% BSA, 0.6% DMSO, 10 mM MgCl2, 3 mM MnCl2, 2 μM ATP, 50 nM Fluorescein-PolyEAY, and 0.3 nM enzyme.
# The reactions were incubated for 60 minutes at room temperature and stopped by adding 4.5 μL of stop buffer (50 mM EDTA, 0.04% NP40, 20 mM Tris/HCl).
# Subsequently 4.5 μL of detection mix (50 mM Tris/HCl, 2 mM DTT, 0.05% Tween20, 20 μM sodium orthovanadate, 1% BSA, 1.72 μg/mL Tb-PY20 antibody) were added to the stopped reactions. After 30 minutes incubation at room temperature, the plates were measured in a BMG Pherastar fluorescence reader. The effect of compound on the enzymatic activity was in all assays obtained from the linear progress curves and determined from one reading (end point measurement).
# Preparation of Compound Dilutions
# Test compounds were dissolved in DMSO (10 mM) and transferred into 1.4 mL flat bottom or V-shaped Matrix tubes carrying a unique 2D matrix. The stock solutions were stored at −20° C. if not used immediately. For the test procedure the vials were defrosted and identified by a scanner whereby a working sheet was generated that guided the subsequent working steps.
# Compound dilutions were made in 96 well plates. This format enabled the assay of maximally 40 individual test compounds at 8 concentrations (single points) including 4 reference compounds. The dilution protocol included the production of “pre-dilution plates”, “master plates” and “assay plates”.
# Pre-dilution plates: 96 polypropylene well plates were used as pre-dilution plates. A total of 4 pre-dilution plates were prepared including 10 test compounds each on the plate positions A1-A10, one standard compound at A11 and one DMSO control at A12. All dilution steps were done on a HamiltonSTAR robot.
# Master plates: 100 μL of individual compound dilutions including standard compound and controls of the 4 “pre-dilution plates” were transferred into a 384 “master plate” including the following concentrations 1′820, 564, 182, 54.6, 18.2, 5.46, 1.82 and 0.546 μM, respectively in 90% of DMSO.
# Assay plates: Identical “assay plates” were then prepared by pipetting 50 nL each of compound dilutions of the “master plates” into 384-well “assay plates” by means of a HummingBird 384-channel dispenser. These plates were used directly for the assay which was performed in a total volume of 9.05 μL. […]
# [2] = test system: MET-amplified gastric cancer cell line GTL-16; assay: GTL-16 proliferation assay (MTS); assay type: cell-based; settings: Homo sapiens, GTL-16 cells, 72 h incubation
# Method: (§1) C-Met Dependent Cellular Assays
# (§2) A number of compounds of the present invention were assayed in a c-Met dependent proliferation and phosphorylation assay as follows.
# GTL-16 proliferation assay: the MET-amplified gastric cancer cell line GTL-16 was grown under standard cell culture conditions in DMEM [Dulbecco's Modified Eagle Medium] (high glucose) supplemented with 10% heat-inactivated fetal calf serum and 2 mM L-glutamine. For proliferation assays, cells were seeded at 3000 per well in 96-well-plates. 24 h later, a 10-point dilution series of each compound (3-fold steps, ranging from […]) was prepared in DMSO. Compound were then diluted 1000-fold in growth media in two steps and added to cells in triplicates, resulting in a final volume of […] per well and maximal final compound concentrations of […]. A DMSO-only control was included. Cells were incubated for 72 h and the amount of viable cells was then measured by adding […] of MTS reagent (CellTiter 96® AQueous Non-Radioactive Cell Proliferation Assay, Promega), further incubation for 30′, and reading the optical density at 490 nm.
# c-Met = target: T2, c-Met (Homo sapiens, UniProt P08581); assay: GTL-16 c-Met autophosphorylation measured by AlphaScreen detection; assay type: cell-based; settings: GTL-16 cells, 1 h incubation, AlphaScreen p-c-Met; read-out: GTL-16 IC50 c-Met phosphorylation
# T2 construct: adapted to measure the phosphorylation of endogenous cellular proteins in cell lysates; endogenous in cells; host or cells: GTL-16
# Method: as §1, §2
# GTL-16 c-Met autophosphorylation measured by AlphaScreen® detection: the human MET-amplified gastric cancer cells GTL-16 were plated in 384-well plates at a density of 10′000 cells in 20 ul complete growth medium (DMEM high glucose supplemented with 10% (v/v) heat inactivated fetal calf serum and of 1 mM sodium pyruvate) and were incubated at […]/5% CO2/95% humidity for 20 h. The cells were washed and the 30 ul assay buffer (DMEM high glucose, 1 mM sodium pyruvate, 0.1% bovine serum albumine) was added. Compounds were diluted in 384-well compound plates to obtain 8-point serial dilutions for 40 test compounds in 90% DMSO, as well as a reference compound plus 16 high- and 16 low (inhibited) controls. These compound plates were prediluted 1:200 in assay buffer into a compound predilution plate and 10 ul of prediluted compound solution were transferred to the cell plate using a 384-well pipettor, resulting in a final DMSO concentration of 0.11%. Cells were incubated for 1 h at […]/5% CO2/95% humidity. The supernatant was removed, the cells were lysed in 25 ul of RIPA [radio immuno precipitation assay] lysis buffer supplemented with 2 mM sodium vanadate and a protease inhibitor cocktail, and cell plates were stored at −80° C.
# For detection of p-c-Met, an AlphaScreen®-based assay was used. AlphaScreen® (Amplified Luminescent Proximity Homogeneous Assay, ALPHA, Perkin Elmer, U.S.A) is a non-radioactive bead-based proximity assay technology to study biomolecular interactions in a homogenous microtiter plate format. This technique has been adapted to measure the phosphorylation of endogenous cellular proteins in cell lysates by the use of specific antibody pairs against the total protein and a phospho-specific epitope. 5 ul of cell lysate was transferred to 384-well low volume Proxiplates for detection using a 384-well pipettor. First, 5 ul of a premix of an anti-c-Met antibody (0.25 ug/ml f.c.), a biotinylated PY20 antibody (phosphotyrosine antibody, 0.05 ug/ml f.c.) and AlphaScreen® Protein A-coupled acceptor beads (10 ug/ml f.c.) in RIPA buffer supplemented with 0.25% (v/w) TOP BLOCK, 2 mM sodium vanadate, and a protease inhibitor cocktail and was added, the plate was sealed, and incubated on a plate shaker for 2 hours at room temperature. Second, 2 ul of dilution buffer containing AlphaScreen® Streptavidin-coated donor beads (10 ug/ml f.c.) in RIPA buffer was added, and the plate was incubated on plate shaker as above for a further 2 hours. The plate was read on an AlphaScreen® compatible plate reader, using standard AlphaScreen® settings.
# T1 sequence (P08581 969-1390): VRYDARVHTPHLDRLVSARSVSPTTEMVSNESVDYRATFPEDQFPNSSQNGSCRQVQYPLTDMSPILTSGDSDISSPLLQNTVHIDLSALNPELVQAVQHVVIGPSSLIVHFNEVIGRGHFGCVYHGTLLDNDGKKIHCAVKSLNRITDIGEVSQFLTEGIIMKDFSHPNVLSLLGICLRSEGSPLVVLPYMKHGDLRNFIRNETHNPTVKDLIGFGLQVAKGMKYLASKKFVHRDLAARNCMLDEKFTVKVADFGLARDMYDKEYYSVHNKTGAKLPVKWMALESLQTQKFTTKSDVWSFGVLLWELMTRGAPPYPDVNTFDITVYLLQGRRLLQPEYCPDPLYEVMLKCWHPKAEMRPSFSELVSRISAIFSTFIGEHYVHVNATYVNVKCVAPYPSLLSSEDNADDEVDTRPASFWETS
# T2 sequence (P08581 25-1390): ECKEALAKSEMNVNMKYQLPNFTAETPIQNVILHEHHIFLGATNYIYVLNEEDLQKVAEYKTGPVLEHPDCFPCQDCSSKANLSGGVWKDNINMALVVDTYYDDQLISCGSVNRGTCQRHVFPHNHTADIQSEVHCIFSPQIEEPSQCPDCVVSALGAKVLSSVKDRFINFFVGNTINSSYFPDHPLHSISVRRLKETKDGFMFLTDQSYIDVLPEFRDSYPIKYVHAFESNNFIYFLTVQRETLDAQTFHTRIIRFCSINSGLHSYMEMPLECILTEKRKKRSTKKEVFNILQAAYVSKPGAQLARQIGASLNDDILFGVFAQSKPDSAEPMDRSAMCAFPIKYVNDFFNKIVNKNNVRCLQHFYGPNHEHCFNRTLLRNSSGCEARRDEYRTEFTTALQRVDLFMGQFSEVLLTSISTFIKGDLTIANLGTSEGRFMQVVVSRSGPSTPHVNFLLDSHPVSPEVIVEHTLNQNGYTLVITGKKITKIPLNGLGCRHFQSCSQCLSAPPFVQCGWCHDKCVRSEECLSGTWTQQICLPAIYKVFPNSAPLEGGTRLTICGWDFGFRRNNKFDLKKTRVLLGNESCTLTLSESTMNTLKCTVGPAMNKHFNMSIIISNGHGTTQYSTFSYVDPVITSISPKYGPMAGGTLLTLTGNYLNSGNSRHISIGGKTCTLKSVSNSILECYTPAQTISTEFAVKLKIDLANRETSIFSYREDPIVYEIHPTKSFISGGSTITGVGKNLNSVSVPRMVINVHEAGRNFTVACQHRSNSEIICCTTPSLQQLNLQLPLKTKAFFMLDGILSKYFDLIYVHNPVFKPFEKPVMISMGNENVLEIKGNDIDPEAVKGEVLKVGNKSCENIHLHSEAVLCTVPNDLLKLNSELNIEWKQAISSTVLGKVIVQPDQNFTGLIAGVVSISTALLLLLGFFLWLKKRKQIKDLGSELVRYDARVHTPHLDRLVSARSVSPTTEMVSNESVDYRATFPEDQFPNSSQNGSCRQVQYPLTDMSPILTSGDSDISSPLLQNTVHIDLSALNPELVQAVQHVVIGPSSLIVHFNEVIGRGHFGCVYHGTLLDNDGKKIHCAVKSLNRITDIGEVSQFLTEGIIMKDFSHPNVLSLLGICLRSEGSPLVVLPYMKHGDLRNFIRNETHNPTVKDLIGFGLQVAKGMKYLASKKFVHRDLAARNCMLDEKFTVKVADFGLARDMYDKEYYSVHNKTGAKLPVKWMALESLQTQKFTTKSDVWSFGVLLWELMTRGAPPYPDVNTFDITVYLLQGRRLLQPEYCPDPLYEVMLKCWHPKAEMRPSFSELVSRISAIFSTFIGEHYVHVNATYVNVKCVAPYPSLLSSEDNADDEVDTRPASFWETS
structure (smiles),measurement,setting,value
"CC(c1c(F)cc2ncccc2c1F)c1cnc2ccc(N3CCN(C(=O)C(F)(F)F)CC3)nn12 (racemic) [Example 17, (rac)-1-(4-{3-[1-(5,7-Difluoro-quinolin-6-yl)-ethyl]-imidazo[1,2-b]pyridazin-6-yl}-piperazin-1-yl)-2,2,2-trifluoro-ethanone]",IC50,[1],24 nM
same,IC50,[2],20 nM
same,IC50,c-Met,14 nM
"CC(c1c(F)cc2ncccc2c1F)c1cnc2ccc(N3CCN(C4CCCC4)C(=O)C3)nn12 (racemic) [Example 20, (rac)-4-{3-[1-(5,7-Difluoro-quinolin-6-yl)-ethyl]-imidazo[1,2-b]pyridazin-6-yl}-1-cyclopentylpiperazin-2-one]",IC50,[1],27 nM
same,IC50,[2],21 nM
same,IC50,c-Met,7 nM
"CC(c1c(F)cc2ncccc2c1F)c1cnc2ccc(N3CCN(C)C(=O)C3C)nn12 (racemic) [Example 21, (rac)-4-{3-[1-(5,7-Difluoro-quinolin-6-yl)-ethyl]-imidazo[1,2-b]pyridazin-6-yl}-1,3-dimethylpiperazin-2-one]",IC50,[1],19 nM
same,IC50,[2],9 nM
same,IC50,c-Met,< 3 nM
"CC(c1c(F)cc2ncccc2c1F)c1cnc2ccc(N3CCN(c4ccccc4)C(=O)C3)nn12 (racemic) [Example 22, (rac)-4-{3-[1-(5,7-Difluoro-quinolin-6-yl)-ethyl]-imidazo[1,2-b]pyridazin-6-yl}-1-phenylpiperazin-2-one]",IC50,[1],14 nM
same,IC50,[2],15 nM
same,IC50,c-Met,6 nM
"CC(c1c(F)cc2ncccc2c1F)c1cnc2ccc(N3CC(=O)NCC3C)nn12 (racemic) [Example 23, (rac)-4-{3-[1-(5,7-Difluoro-quinolin-6-yl)-ethyl]-imidazo[1,2-b]pyridazin-6-yl}-5-methylpiperazin-2-one]",IC50,[1],15 nM
same,IC50,[2],8.5 nM
same,IC50,c-Met,3.3 nM
"CC1CN(c2ccc3ncc(C(C)c4c(F)cc5ncccc5c4F)n3n2)CC(=O)N1 (racemic) [Example 24, (rac)-4-{3-[1-(5,7-Difluoro-quinolin-6-yl)-ethyl]-imidazo[1,2-b]pyridazin-6-yl}-6-methylpiperazin-2-one]",IC50,[1],4 nM
same,IC50,[2],9.8 nM
same,IC50,c-Met,4 nM
"CC(c1c(F)cc2ncccc2c1F)c1cnc2ccc(N3CCN(c4ccccn4)C(=O)C3)nn12 (racemic) [Example 25, (rac)-4-{3-[1-(5,7-Difluoro-quinolin-6-yl)-ethyl]-imidazo[1,2-b]pyridazin-6-yl}-1-(pyridin-2-yl)piperazin-2-one]",IC50,[1],15 nM
same,IC50,[2],13 nM
same,IC50,c-Met,8 nM
"CC(c1cc2cnn(C)c2cc1F)c1cnc2ccc(N3CCNC(=O)C3)nn12 (racemic) [Example 27, (rac)-4-{3-[1-(6-Fluoro-1-methyl-1H-indazol-5-yl)-ethyl]-imidazo[1,2-b]pyridazin-6-yl}-piperazin-2-one]",IC50,[1],73 nM
same,IC50,[2],173 nM
same,IC50,c-Met,3 nM
"CC(c1cc2cccnc2cc1F)c1cnc2ccc(N3CCN(C)C(=O)C3)nn12 (racemic) [Example 40, (rac)-4-{3-[1-(7-Fluoro-quinolin-6-yl)-ethyl]-imidazo[1,2-b]pyridazin-6-yl}-1-methyl-piperazin-2-one]",IC50,[1],39 nM
same,IC50,[2],147 nM
same,IC50,c-Met,11 nM
"CC(c1cc2cccnc2cc1F)c1cnc2ccc(N3CCNC(=O)C3)nn12 (racemic) [Example 41, (rac)-4-{3-[1-(7-Fluoro-quinolin-6-yl)-ethyl]-imidazo[1,2-b]pyridazin-6-yl}-piperazin-2-one]",IC50,[1],23 nM
same,IC50,[2],49 nM
same,IC50,c-Met,< 3 nM
"CC(=O)N1CCN(c2ccc3ncc(C(C)c4cc5cccnc5cc4F)n3n2)CC1 (racemic) [Example 42, (rac)-1-(4-{3-[1-(7-Fluoro-quinolin-6-yl)-ethyl]-imidazo[1,2-b]pyridazin-6-yl}-piperazin-1-yl)ethanone]",IC50,[1],49 nM
same,IC50,[2],193 nM
same,IC50,c-Met,39 nM
"CC(c1ccc2ncccc2c1F)c1cnc2ccc(N3CCN(C)C(=O)C3)nn12 (racemic) [Example 46, (rac)-4-{3-[1-(5-Fluoro-quinolin-6-yl)-ethyl]-imidazo[1,2-b]pyridazin-6-yl}-1-methyl-piperazin-2-one]",IC50,[1],30 nM
same,IC50,[2],47 nM
same,IC50,c-Met,15 nM
"CC(c1ccc2ncccc2c1F)c1cnc2ccc(N3CCNC(=O)C3)nn12 (racemic) [Example 47, (rac)-4-{3-[1-(5-Fluoro-quinolin-6-yl)-ethyl]-imidazo[1,2-b]pyridazin-6-yl}-piperazin-2-one]",IC50,[1],15 nM
same,IC50,[2],19 nM
same,IC50,c-Met,5.5 nM
"CC(=O)N1CCN(c2ccc3ncc(C(C)c4ccc5ncccc5c4F)n3n2)CC1 (racemic) [Example 48, (rac)-1-(4-{3-[1-(5-Fluoro-quinolin-6-yl)-ethyl]-imidazo[1,2-b]pyridazin-6-yl}-piperazin-1-yl)ethanone]",IC50,[1],140 nM
same,IC50,[2],168 nM
same,IC50,c-Met,35 nM
